Our source for the melting point and IC50 values is US20030078251A1, “Benzoxazepinones and their use as squalene synthase inhibitors” (priority 2000, published 2003).

The target of series [1] is T1, squalene synthase (Homo sapiens, UniProt P37268).
T1 construct: endogenous in cells; host or cells: HepG2 (human hepatic cancer cells); sediment of the 105000 x g centrifugation (microsomal fraction)
T1 sequence (P37268 1-417): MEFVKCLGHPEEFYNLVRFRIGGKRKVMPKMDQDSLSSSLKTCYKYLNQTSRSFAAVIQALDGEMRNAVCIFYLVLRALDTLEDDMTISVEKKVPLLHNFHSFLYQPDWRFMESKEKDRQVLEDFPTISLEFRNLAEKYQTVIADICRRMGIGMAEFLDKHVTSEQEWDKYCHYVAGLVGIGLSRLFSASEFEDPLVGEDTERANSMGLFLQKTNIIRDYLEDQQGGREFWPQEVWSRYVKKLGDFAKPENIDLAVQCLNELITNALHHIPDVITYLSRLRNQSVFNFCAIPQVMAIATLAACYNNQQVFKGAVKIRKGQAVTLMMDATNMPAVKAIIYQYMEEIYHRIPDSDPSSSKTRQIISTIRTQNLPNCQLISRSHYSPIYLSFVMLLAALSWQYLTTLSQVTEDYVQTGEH
Nature of the series: Squalene synthase inhibiting activity (Test Example 1). The class given is biochemical. The conditions noted are these: enzyme solution from human hepatic cancer cell HepG2; 5 μM [1-3H] farnesyl pyrophosphate, 37° C., 45 minutes; read-out: Inhibiting activity (IC50, 10^−9M). As for the experimental part:
Squalene Synthase Inhibiting Activity
The squalene synthase inhibiting activity was measured using an enzyme solution obtained according to a preparing method described below as follows:
That is, an enzyme solution (protein 0.8 μg) prepared according to the following preparing method was added to a solution containing 5 μM [1-^3H] farnesyl pyrophosphate (specific activity […]), 1 mM NADPH (reduced type nicotinamide adenine dinucleotide phosphate), 5 mM MgCl2, 6 mM glutathione, 100 mM potassium phosphate buffer (pH 7.4) and a test drug (added as an aqueous solution or DMSO solution)(total amount 50 μl), which was reacted at 37° C. for 45 minutes. 150 μl of a mixed solution of chloroform and methanol (1:2) was added to stop the reaction, and 50 μl of chloroform and 50 μl of a 3N sodium hydroxide solution were added. 50 μl of the chloroform layer (lower layer) containing the reaction product, a main component of which is squalene, and 3 ml of toluene series liquid scintillator were mixed, and the radioactivity thereof was measured by a liquid scintillation counter.
The squalene synthase inhibiting activity was shown by the concentration at which 50% of the radioactivity […] into the chloroform layer (IC50, molar concentration (M)).
Preparation of Human Enzyme Solution
Human hepatic cancer cell HepG2 (about 1×10^9 cells) was grown in Dulbecco's modified Eagle medium (37° C., in the presence of 5%CO2) containing 10% bovine fetal serum, the resulting cells were suspended in 10 ml of ice-cooled buffer [100 mM potassium phosphate buffer (pH 7.4), 30 mM nicotinamide, 2.5 mM MgCl2], and ruptured by the ultrasonication (30 seconds, 2 times). The resulting sonicate was centrifuged at 10000× g for 20 minutes (4° C.). The resulting supernatant was centrifuged at 105000× g for 90 minutes (4° C.), then the sediment was suspended in an ice-cooled 100 mM potassium phosphate buffer (pH 7.4), and centrifuged again at 105000× g for 90 minutes (4° C.). This was suspended in an ice-cooled 100 mM potassium phosphate buffer (pH 7.4) (protein concentration about 4 mg/ml), which was used as an enzyme solution.

As usually defined, the melting point is the temperature of the solid-liquid transition. One may read the IC50 as the concentration that gives 50% inhibition. `CCCS(=O)(=O)NC(=O)C[C@H]1O[C@H](c2cccc(OC)c2OC)c2cc(Cl)ccc2N(CC(C)(C)CO)C1=O` [Example 2, (3R,5S)-N-propanesulfonyl-7-chloro-5-(2,3-dimethoxyphenyl)-1-(3-hydroxy-2,2-dimethylpropyl)-2-oxo-1,2,3,5-tetrahydro-4,1-benzoxazepine-3-acetamide] showed a melting point of 135 to 137 °C. Also, the IC50 in series [1] was 0.054 µM.
For `COc1cccc([C@H]2O[C@H](CC(=O)N[C@H](C)C(=O)O)C(=O)N(CC(C)(C)C)c3ccc(Cl)cc32)c1OC` [Example 18, (2R)-2-[[(3R,5S)-7-chloro-5-(2,3-dimethoxyphenyl)-1-neopentyl-2-oxo-1,2,3,5-tetrahydro-4,1-benzoxazepin-3-yl]acetyl]aminopropionic Acid] the same measures were 184 to 186 °C and 0.01 µM.
With `COc1cccc([C@H]2O[C@H](CC(=O)NC[C@H]3CC[C@H](C(=O)O)CC3)C(=O)N(CC(C)(C)CO)c3ccc(Cl)cc32)c1OC` [Example 23, trans-4-[[(3R,5S)-7-chloro-5-(2,3-dimethoxyphenyl)-1-(3-hydroxy-2,2-dimethylpropyl)-2-oxo-1,2,3,5-tetrahydro-4,1-benzoxazepin-3-yl]acetyl]aminomethyl-1-cyclohexanecarboxylic acid], the IC50 in series [1] was 0.099 µM.
On the same count and under the same terms, with `COc1cccc([C@H]2O[C@H](CC(=O)NC[C@H]3CC[C@H](C(=O)O)CC3)C(=O)N(CC(C)(C)COC(C)=O)c3ccc(Cl)cc32)c1OC` [Example 24, trans-4-[[(3R,5S)-1-(3-acetoxy-2,2-dimethylpropyl)-7-chloro-5-(2,3-dimethoxyphenyl)-2-oxo-1,2,3,5-tetrahydro-4,1-benzoxazepin-3-yl]acetyl]aminomethyl-1-cyclohexanecarboxylic acid] the figure was 0.17 µM.
Molecule `COc1cccc([C@H]2O[C@H](CC(=O)NCCc3occc3C(=O)O)C(=O)N(CC(C)(C)CO)c3ccc(Cl)cc32)c1OC` [Example 26, 2-[2-[[[(3R,5S)-7-chloro-5-(2,3-dimethoxyphenyl)-1-(2,2-dimethyl-3-hydroxypropyl)-2-oxo-1,2,3,5-tetrahydro-4,1-benzoxazepin-3-yl]acetyl]amino]ethyl]furan-3-carboxylic acid] returned a melting point of 126 to 129 °C. Besides, the IC50 in series [1] was 0.025 µM.
For `COc1cccc([C@H]2O[C@H](CC(=O)NCc3ccoc3C(=O)O)C(=O)N(CC(C)(C)CO)c3ccc(Cl)cc32)c1OC` [Example 30, 3-[[[[(3R,5S)-7-chloro-5-(2,3-dimethoxyphenyl)-1-(2,2-dimethyl-3-hydroxypropyl)-2-oxo-1,2,3,5-tetrahydro-4,1-benzoxazepin-3-yl]acetyl]amino]methyl]furan-2-carboxylic acid], the melting point lay in the range of 125 to 128 °C. The IC50 in series [1] was 0.0091 µM.
For `COc1cccc([C@H]2O[C@H](CC(=O)Nc3cccc(CCC(=O)O)c3)C(=O)N(CC(C)(C)CO)c3ccc(Cl)cc32)c1OC` [Example 35, 3-[3-[[(3R,5S)-7-chloro-5-(2,3-dimethoxyphenyl)-1-(3-hydroxy-2,2-dimethylpropyl)-2-oxo-1,2,3,5-tetrahydro-4,1-benzoxazepin-3-yl]acetyl]aminophenyl]propionic Acid] the same measures were 141 to 144 °C and 0.12 µM.
On to `COc1ccc(CCC(=O)O)cc1NC(=O)C[C@H]1O[C@H](c2cccc(OC)c2OC)c2cc(Cl)ccc2N(CC(C)(C)CO)C1=O` [Example 37, 3-[3-[[(3R,5S)-7-chloro-5-(2,3-dimethoxyphenyl)-1-(3-hydroxy-2,2-dimethylpropyl)-2-oxo-1,2,3,5-tetrahydro-4,1-benzoxazepin-3-yl]acetyl]amino-4-methoxyphenyl]propionic Acid], for which the IC50 in series [1] is 0.094 µM.
Take `COc1cccc([C@H]2O[C@H](CC(=O)Nc3cc(CCC(=O)O)ccc3F)C(=O)N(CC(C)(C)CO)c3ccc(Cl)cc32)c1OC` [Example 53, 3-[3-[[[(3R,5S)-7-chloro-5-(2,3-dimethoxyphenyl)-1-(3-hydroxy-2,2-dimethylpropyl)-2-oxo-1,2,3,5-tetrahydro-4,1-benzoxazepin-3-yl]acetyl]amino]-4-fluorophenyl]propionic Acid]: the melting point is 151 to 152 °C. In addition, the IC50 in series [1] is 0.04 µM.
`COc1cccc([C@H]2O[C@H](CC(=O)NCc3cccc(CCC(=O)O)c3)C(=O)N(CC(C)(C)CO)c3ccc(Cl)cc32)c1OC` [Example 64, 3-[3-[[[(3R,5S)-7-chloro-5-(2,3-dimethoxyphenyl)-1-(3-hydroxy-2,2-dimethylpropyl)-2-oxo-1,2,3,5-tetrahydro-4,1-benzoxazepin-3-yl]acetyl]aminomethyl]phenyl]propionic Acid]: in series [1], the IC50 is 0.037 µM.
For `COc1cccc([C@H]2O[C@H](CC(=O)Nc3ccc4oc(C(=O)O)c(C)c4c3)C(=O)N(CC(C)(C)CO)c3ccc(Cl)cc32)c1OC` [Example 160, 5-[[[(3R,5S)-7-Chloro-5-(2,3-dimethoxyphenyl)-1-(3-hydroxy-2,2-dimethylpropyl)-2-oxo-1,2,3,5-tetrahydro-4,1-benzoxazepin-3-yl]acetyl]amino]-3-methyl-1-benzofuran-2-carboxylic acid], the melting point fell in the range of 175 to 176.5 °C.
On the same count and under the same terms, for `COc1cccc([C@H]2O[C@H](CC(=O)Nc3cc(C)c4oc(C(=O)O)cc4c3)C(=O)N(CC(C)(C)CO)c3ccc(Cl)cc32)c1OC` [Example 161, 5-[[[(3R,5S)-7-Chloro-5-(2,3-dimethoxyphenyl)-1-(3-hydroxy-2,2-dimethylpropyl)-2-oxo-1,2,3,5-tetrahydro-4,1-benzoxazepin-3-yl]acetyl]amino]-7-methyl-1-benzofuran-2-carboxylic acid] the value was 180.7 to 182 °C.
As to `CCc1cc(NC(=O)C[C@H]2O[C@H](c3cccc(OC)c3OC)c3cc(Cl)ccc3N(CC(C)(C)CO)C2=O)cc2cc(C(=O)O)oc12` [Example 162, 5-[[2-[(3R,5S)-7-Chloro-5-(2,3-dimethoxyphenyl)-1-(3-hydroxy-2,2-dimethylpropyl)-2-oxo-1,2,3,5-tetrahydro-4,1-benzoxazepin-3-yl]acetyl]amino]-7-ethyl-1-benzofuran-2-carboxylic acid], the melting point was 188 to 189 °C.
On the same count and under the same terms, for `CCCc1cc(NC(=O)C[C@H]2O[C@H](c3cccc(OC)c3OC)c3cc(Cl)ccc3N(CC(C)(C)CO)C2=O)cc2cc(C(=O)O)oc12` [Example 163, 5-[[[(3R,5S)-7-Chloro-5-(2,3-dimethoxyphenyl)-1-(3-hydroxy-2,2-dimethylpropyl)-2-oxo-1,2,3,5-tetrahydro-4,1-benzoxazepin-3-yl]acetyl]amino]-7-propyl-1-benzofuran-2-carboxylic acid] the value was 198.5 to 199.5 °C; for `COc1cccc([C@H]2O[C@H](CC(=O)Nc3c(C)c(C)c4oc(C(=O)O)cc4c3C)C(=O)N(CC(C)(C)CO)c3ccc(Cl)cc32)c1OC` [Example 164, 5-[[[(3R,5S)-7-Chloro-5-(2,3-dimethoxyphenyl)-1-(3-hydroxy-2,2-dimethylpropyl)-2-oxo-1,2,3,5-tetrahydro-4,1-benzoxazepin-3-yl]acetyl]amino]-4,6,7-trimethyl-1-benzofuran-2-carboxylic acid], 246 to 248 °C; for `COc1cccc([C@H]2O[C@H](CC(=O)Nc3cc(Cl)cc4cc(C(=O)O)oc34)C(=O)N(CC(C)(C)CO)c3ccc(Cl)cc32)c1OC` [Example 165, 7-[[[(3R,5S)-7-Chloro-5-(2,3-dimethoxyphenyl)-1-(3-hydroxy-2,2-dimethylpropyl)-2-oxo-1,2,3,5-tetrahydro-5,1-benzoxazepin-3-yl]acetyl]amino]-5-chloro-1-benzofuran-2-carboxylic acid], 179.2 to 180.2 °C.
